Data published in patent publication US7939332B2, “Detection of analytes in aqueous environments” (Sensors for Medicine and Science, Inc., priority 2000, dated 2011).

Assay: Solubility
Format: physicochemical
Settings: for solubility in water: H2O

SMILES | solubility in organic solvents (CH2Cl2, CHCl3, THF, CH3OH, C2H5OH) | solubility in water | solubility in water (listed as anthracene derivative of Examples 1 and 2) | solubility in methanol (methanol, with respect to observing excimer characteristics) | maximum solubility (PBS (pH 7.4))
C=C(C)C(=O)NCCCN(Cc1ccccc1B(O)O)Cc1c2ccccc2cc2ccccc12 [9-[[N-methacryloylaminopropyl-N-(o-boronobenzyl)amino]methyl]anthracene] | soluble in CH2Cl2, CHCl3, THF, CH3OH, and C2H5OH | Limited solubility in H2O | insoluble in water | insufficiently soluble | 
C=C(C)C(=O)NCCCN(Cc1ccc(CN(CCCNC(=O)C(=C)C)Cc2ccccc2B2OCC(C)(C)CO2)cc1)Cc1ccccc1B1OCC(C)(C)CO1 [bis boronic acid monomer, α,α′-bis[N-[2-(5,5-dimethyl-1,3,2]dioxaborinan-2-yl)-benzyl]-N-[3-(methacrylamido)propylamino]-1,4-xylene] |  |  |  |  | 1000 µM
